Test results published in patent US7057036B2, “Pyrrolothiazine and pyrrolothiazepine compounds having serotonin-2 receptor antagonistic and alpha-1-blocking action” (Daiichi Suntory Pharma Co., Ltd., priority 1997, dated 2006).

Assays:
serotonin-2 receptors = test: Anti-serotonin (5-HT) action: 5-HT-induced contraction of isolated superior mesenteric artery; conditions: contraction by 10^−5 M 5-HT taken as 100%, guinea pig superior mesenteric artery
Procedure: (1) Anti-Serotonin (5-HT) Action
A preparation cut in a helical form was suspended under resting-tension of 0.3 g in a Magnus cylinder filled with the Tyrode solution which had been aerated with a gas mixture of 95% O2 and 5% CO2 and maintained at 37° C. Using an isometric transducer (“UL-10”, manufactured by SHINKOH K. K.) and a pressure preamplifier (“DSA-605A”, manufactured by SHINKOH K. K.), variations in tension were measured. The isometric tensions were recorded on a pen-writing recorder (“VP-6537A”, manufactured by NATIONAL K. K.). Taking the contraction induced by 10^−5 M serotonin (5-HT) as 100%, the percent contractions by 10^−5 M 5-HT in the presence of each test drug at 10^−7 M and 10^−6 M were determined as anti-5-HT action.

α1 receptors = test: Anti-α1 action: norepinephrine-induced tonic contraction of isolated thoracic aorta; conditions: tonic contraction by 10^−5 M norepinephrine taken as 100%, guinea pig thoracic aorta
Procedure: The thoracic aorta of each Hartley male guinea pig (body weight: 300–500 g) was excised. A preparation cut in a helical form was suspended under 1 g load in a Magnus cylinder filled with the Tyrode solution which had been aerated with a gas mixture of 95% O2 and 5% CO2 and maintained at 37° C. Using an isometric transducer (“TB-612J”, manufactured by Nihon Kohden Corporation) and a pressure preamplifier (“AP-620G”, manufactured by Nihon Kohden Corporation), variations in tension were measured. The isometric tensions were recorded on a thermal pen-writing recorder (“WT-647G”, manufactured by Nihon Kohden Corporation). Taking the tonic contraction induced by 10^−5 M norepinephrine (NE) as 100%, the percent contractions upon addition of each test drug at 10^−8 M and 10^−7 M were determined and recorded as α1 action.

Compound	Anti 5-HT action (% of Control) (serotonin-2 receptors; test drug 10^−6 M)	Anti 5-HT action (% of Control) (serotonin-2 receptors; test drug 10^−7 M)	Anti α1 action (% of Control) (α1 receptors; test drug 10^−7 M)	Anti α1 action (% of Control) (α1 receptors; test drug 10^−8 M)
Cn1ccc2c1C(O)CCN(CCCN1CCN(c3ccc(F)cc3)CC1)S2(=O)=O (centres unmarked) [Compound 30, 2-[3-[4-(4-fluorophenyl)piperazin-1-yl]propyl]-5-hydroxy-6-methyl-3,4,5,6-tetrahydro-2H-pyrrolo[2,3-f][1,2]thiazepine 1,1-dioxide]	37.2 % of Control	83.5 % of Control	88.0 % of Control	102.3 % of Control
Cn1ccc2c1C(=NO)CCN(CCCN1CCN(c3ccc(F)cc3)CC1)S2(=O)=O [Compound 27, 2-[3-[4-(4-fluorophenyl)piperazin-1-yl]propyl]-5-hydroxyimino-6-methyl-3,4,5,6-tetrahydro-2H-pyrrolo[2,3-f][1,2]thiazepine 1,1-dioxide]	22.7 % of Control	76.2 % of Control	53.0 % of Control	91.2 % of Control
Cn1ccc2c1C(=NO)CN(CCCN1CCC(C(=O)c3ccc(F)cc3)CC1)S2(=O)=O [Compound 26, 2-[3-[4-(4-fluorobenzoyl)piperidino]propyl]-4-hydroxyimino-5-methyl-2,3,4,5-tetrahydropyrrolo[2,3-e][1,2]thiazine 1,1-dioxide]	18.2 % of Control	54.6 % of Control	73.1 % of Control	99.6 % of Control
Cn1ccc2c1C(=O)CCN(CCCN1CCC(C(=O)c3ccc(F)cc3)CC1)S2(=O)=O [Compound 22, 2-[3-[4-(4-fluorobenzoyl)piperidino]propyl]-6-methyl-3,4,5,6-tetrahydro-2H-pyrrolo[2,3-f][1,2]thiazepin-5-one 1,1-dioxide]	21.3 % of Control	75.3 % of Control	64.9 % of Control	91.2 % of Control
Cn1ccc2c1C(=NO)CN(CCCN1CCN(c3ccc(F)cc3)CC1)S2(=O)=O [Compound 25, 2-[3-[4-(4-fluorophenyl)piperazin-1-yl]propyl]-4-hydroxyimino-5-methyl-2,3,4,5-tetrahydropyrrolo[2,3-e][1,2]thiazine 1,1-dioxide]	19.6 % of Control	69.8 % of Control	24.1 % of Control	65.3 % of Control
